ChEMBL document CHEMBL3507680, “University of Dundee, Gates Library screen for HepG2 cell viability”

assay: Human HepG2 cell viability assay in 384 well format; type: toxicity, cell-based; set-up: dose 125 nL, time 70.5 hour; cytotoxicity at 70.5 h: concentration not given beside the values; conditions: HepG2 cells, read-out: Inhibition

SMILES	cytotoxicity at 70.5 h [%]
COc1cc(OC)cc(-c2noc(CC(N)c3ccccc3)n2)c1 (configuration not stated)	-5.26
Cc1ncsc1CN(C)Cc1cc2c(cc1OC(F)F)OCO2	5.16
O=C(NCC1CCCCC1)N1C[C@H]2C[C@H](C(=O)N3CCCC3)[C@@H](C1)O2	-1.84
Cc1c(C(=O)N2CCC(O)(CN(C)C)C2)c2ccccc2n1C (configuration not stated)	11
CC(CCSc1ccccc1)N1CCN(C(=O)c2ccccc2O)CC1 (configuration not stated)	36.1
Cc1cccc(-c2noc([C@@H]3Cc4nc[nH]c4CN3)n2)c1	-3
O=C(CCC(=O)Nc1ccccc1)NCC(=O)c1ccc(F)cc1F	5.75
Cc1nn(C)c(C)c1CCC(=O)N1CCc2sccc2C1	23.2
Cc1occc1C(=O)N1CCCN(Cc2ncc(Cl)n2C)CC1	-7.84
O=C1NCCN(C(=O)c2cn3ccsc3n2)C1Cc1ccccc1 (configuration not stated)	-5.01
Cc1ccc(N2CCCC(NCc3cccc4c3OCO4)C2)nn1 (configuration not stated)	-0.527
CN(C)C(CNC(=O)c1ncoc1-c1ccccc1)c1ccsc1 (configuration not stated)	-11.1
CN1CCC(N(C)C[C@H]2CC[C@@H](Cc3ccc4c(cnn4C)c3)O2)CC1	-7.57
O=C(c1ccc[nH]1)N1CCc2c(cccc2S(=O)(=O)N2CCOCC2)C1	29.8
O=C(Nc1ccccc1)[C@H]1C[C@@H]2CN(S(=O)(=O)C3CC3)C[C@H]1O2	-14.4
O=C(CCC(=O)N1CCCC1c1cccs1)N1CCc2sccc2C1 (configuration not stated)	2.92
COc1ccc(CN2CCC3(CC(C(=O)NCC(C)C)=NO3)C2)cc1 (configuration not stated)	-6.44
Cc1ccc2c(c1)SCC(=O)N2CC(=O)N1CCC[C@H]1c1nc(C)no1	-5.13
CCc1nnc2n1CC(CNCc1nnc(C(C)(C)C)o1)CC2 (configuration not stated)	-6.78
COCCC(=O)NCc1ccc(-c2ncncc2C(=O)N(C)C)cc1	6.32
CCn1c(C2CCCN(Cc3ccc(F)cc3Cl)C2)nn(C)c1=O (configuration not stated)	6.43
Cc1c(C(=O)N2CCCC(O)(CN(C)C)CC2)c2cc(O)ccc2n1C (configuration not stated)	13.3
Cc1ccc(N2CCCC(NCc3ccc(C)s3)C2)nn1 (configuration not stated)	3.59

SMILES	cytotoxicity at 70.5 h [%]
COC(=O)N1CCC(c2nnc(Cn3ccnc3)n2C)CC1	-2.68
Cc1nc(CN(Cc2ccncc2)C2CCN(C)CC2)cs1	8.24
Cc1ccnc(C2CCN(c3ccnc(C)n3)C2)n1 (configuration not stated)	-12.3
O=c1[nH]c(CCN2CCCCC2Cn2cccn2)nc2ccccc12 (configuration not stated)	-1.7
Cc1cccc(C(C(=O)N(C)Cc2ccco2)N(C)C)c1 (configuration not stated)	2.2
CCCn1ncc(C(=O)NC2CCN(CC3CCCO3)CC2)c1C (configuration not stated)	25.6
CC(C)n1ncc2cc(NC(=O)N3CCSCC3)cnc21	-3.2
CN(C)C(=O)c1cnc(-c2ccc3c(c2)OCO3)s1	6.77
COCCN(CCOC)C(=O)c1cn(C(C)(C)C)c2ncccc12	3.1
O=C(c1ccco1)N1CC[C@H]2C[C@@H](c3nccs3)O[C@@H]2C1	-1.13
CCc1ccc(CN2CCN(C(=O)C(C)C)[C@@H]3CS(=O)(=O)C[C@@H]32)cc1	14.5
CC(C)c1cc(C(=O)N(c2ccc(F)cn2)C2CCOCC2)on1	1.54
COCC1CC2(CCN(C(=O)c3ccc(F)cc3C)CC2)CO1 (configuration not stated)	-2.86
N#Cc1ccccc1CNC(C(=O)N1CCOCC1)c1ccccc1 (configuration not stated)	-1.56
Cc1nn(C)c2cnn(Cc3ccc(C(=O)N4CCN(C)CC4)o3)c12	28.4
O=C(CCCNCc1ccccc1)N1CCCn2cncc2C1	-4.58
CN(Cc1cc(C2CC2)on1)C(=O)CN1CC(c2ccccc2)CC1=O (configuration not stated)	-8.22
CCCS(=O)(=O)NC1CCN(c2cccc(F)c2C#N)CC1	-19.1
O=C(c1ccccc1N1CCOCC1)N1CCCC(n2cccn2)C1 (configuration not stated)	1.3
COCC[C@]1(O)CCN(C(=O)c2cnn(C)c2)C[C@H]1C	-0.906
O=c1[nH][nH]cc1-c1ccnc(NCCN2CCCCC2)n1	30.8
O=c1ccc(-c2ccccc2F)nn1CN1CCCCCC1	-4.57
Cc1cc(CNc2cccc(Cl)c2C)no1	-17.1

SMILES	cytotoxicity at 70.5 h [%]
CC(=O)N1CCc2[nH]cnc2C12CCN(C(=O)Cc1ccccn1)CC2	-14.9
CCN(CC)C(=O)c1cc(Br)cc(S(=O)(=O)N2CCOCC2)c1F	-2.06
Cc1cnc(CN2CCOC(Cn3nc(C)nc3C)C2)cn1 (configuration not stated)	18.6
Cc1nc(CNC2CC(=O)N(CCc3cccc(Cl)c3)C2)c[nH]1 (configuration not stated)	-5.42
NC(=O)c1cnn2c1NCC(CNCCCOc1ccccc1F)C2 (configuration not stated)	6.81
COC(=O)C(CO)NC(=O)c1cn(Cc2ccccc2F)nn1 (configuration not stated)	-8.74
O=C(O)c1ccn(-c2ccccc2NS(=O)(=O)c2ccccc2)n1	-0.995
COc1ccc(CN2C[C@H]3CN(c4ccsc4)C(=O)[C@H]3C2)cc1	-20.7
CN(C)CCn1c([C@H]2CCCO2)cc2cccnc21	-2.03
O=C(c1ccc(OCC2CC2)nc1)N1CCCC(n2cncn2)C1 (configuration not stated)	-12.6
Cc1nc2c(C(=O)N[C@H]3C[C@H]4CN(C)CCN4C3)cccc2[nH]1	-10.2
CCc1nnc2n1CCN(C(=O)c1ccc(-c3ccco3)nc1C)C2	10
CN1CCCC1c1ccc(C(=O)N2CCc3ccccc3C2)s1 (configuration not stated)	17.6
CC(CNC(=O)c1cnc[nH]1)Oc1ccc(Cl)cc1 (configuration not stated)	-22.4
Cc1cc(NCCc2cnccn2)nc(-c2ccccc2O)n1	-12.4
CN1CCN(Cc2cn3c(n2)CNCC3)CC1	23.1
Cc1nc(CN2CCC3(CCCN(Cc4cnn(C)c4)C3)C2=O)cs1 (configuration not stated)	0.731
Cn1nc(CNC(=O)CN2C(=O)CCC2=O)cc1C1CC1	1.45
CS(=O)(=O)CCCNC1(c2ccc(Br)cc2)CCC1	-5.79
CCCSCC(=O)N1CCC2(CC1)CC(c1ccccc1)CN(C)C2 (configuration not stated)	4.01
Cc1cc(C)c2cc(CNC(C)C)c3nn(C)c(=O)n3c2c1	-1.75
CCCOC1CCCN(C(=O)c2ccnnc2)C1 (configuration not stated)	-2.27
Cc1nccc(N[C@H]2CN(CC(C)(C)N3CCOCC3)C[C@@H]2C2CC2)n1	20.2

SMILES	cytotoxicity at 70.5 h [%]
CC(C)(O)CN1CCC(=O)N(Cc2ccco2)Cc2cc(F)ccc21	3.68
CSc1nccc(N2CCC3(CCCN(CCc4ccccc4)C3)C2)n1 (configuration not stated)	6.79
COCC(=O)NC[C@H]1C[C@@H]2CCN1C[C@@H]2CN1CCc2ccccc2C1	-12.4
Cc1ccc([C@H]2CN(CCO)C[C@@H]2NC(=O)CN2CCCCC2=O)o1	-11
Cc1ccc2c(c1)C1(CCNCC1)CN2C(=O)C(C)C	18.3
Cc1n[nH]c(C)c1CCC(=O)NCC1CCCN(C2CCCC2)C1 (configuration not stated)	30.3
CC(C)c1noc(C(C)N2CCN(Cc3ccco3)CC2)n1 (configuration not stated)	-9.38
CN(C)Cc1cc(C2CCN(C(=O)C3CC34CCC4)CC2)nn1C (configuration not stated)	-0.0295
O=C(NCCNc1ccc(C(F)(F)F)cn1)c1ccc(F)cc1Cl	-3.01
c1cc2c(c(-c3cc(N4CCOCC4)ncn3)c1)CCNC2	-7.28
Cc1ncccc1Oc1ncnc(N2CCC3(CCCO3)CC2)c1C	-7.69
CCN1CCN(Cc2nc(CC(C)C)no2)CC1	19.9
CC1CCc2nc(O)c(C(=O)NCc3ccncc3)cc2C1 (configuration not stated)	5.88
CN(C)C1CCCN(C(=O)NCCC(=O)N2CCCCCC2)C1 (configuration not stated)	0.671
COc1ccc(-c2nc(CCNc3nnc(C)c(C)c3C#N)co2)cc1	13.7
CN(CCN1CCOCC1)C(=O)CCCc1ccccc1	-2.26
CCN(CC(=O)NC1(C)CCS(=O)(=O)C1)Cc1ccc(OC)c(F)c1 (configuration not stated)	-9.28
Cc1nnn2c1COCC(CNC(=O)c1ccc[nH]1)C2 (configuration not stated)	7.03
CC(O)C1CCN(c2cc(Cl)ccc2C#N)CC1 (configuration not stated)	-14.2
CC1CCN(CCNC(=O)C2CCN(S(N)(=O)=O)CC2)CC1	-3.07
CCC(NC(=O)C1CCN(S(=O)(=O)N(C)C)CC1)c1ccc(C)c(C)c1 (configuration not stated)	-5.81
Cc1cc(N2CCCC2(C)c2nc(C)cc(C(=O)N(C)C)n2)ncn1 (configuration not stated)	-2.78
CNS(=O)(=O)c1cc(C(=O)NC2COc3ccccc32)cc(C)c1C (configuration not stated)	-13.5

SMILES	cytotoxicity at 70.5 h [%]
Cn1ccc2ccnc(CC3CN(C(=O)C4CCC(F)(F)CC4)C3)c21	3.02
CCn1ccc(NC(=O)CCn2nc(C)c3ccccc32)n1	-10.3
OCCN1CCC2(CCc3cc(-c4ccoc4)ccc32)CC1	-2.95
COCCn1cnc2ccc(NC(=O)CCCn3cccn3)cc2c1=O	-7.81
CN1CC(=O)N(c2ccsc2)CC12CCN(C(=O)CC1CCCC1)C2 (configuration not stated)	-0.558
CN(Cc1ccccc1)c1ccc(C(F)(F)F)cn1	-3.92
Cc1ncsc1CCC(=O)NCc1csc(N2CCCC2)n1	-6.59
CN(C)C(=O)CNC(=O)c1ccc2c(-c3nccs3)noc2c1	-3.55
CCc1noc(CNc2c(F)cccc2-n2cccn2)n1	-8.2
CC(C)(N)C(=O)N1CCCC1c1cncc(Oc2ccc(F)cc2)n1 (configuration not stated)	0.148
C[C@@H]1CN(CC(=O)NCc2ccccn2)C[C@]1(C)O	-1.62
CCNC(=O)C(C)NC(=O)Nc1ccccc1Cl (configuration not stated)	-6.58
CC(C)(C(=O)NCc1ccccc1F)n1cc(Br)cn1	-6.29
CC(C)c1ncncc1C(=O)N1CCCN(Cc2ccccc2)CC1	-15.3
COCCNC(=O)CCNC(=O)c1ccc(N2CCC(C)=N2)cc1	-16
CCCN1CCCCCC1Cc1c(C(=O)NC)sc2ccccc12 (configuration not stated)	27.8
COC(=O)c1cc(NS(=O)(=O)c2cn(C)cn2)c(F)cc1F	-2.67
Cc1ccc(C(=O)NC2CCN(C(=O)NCc3ccccn3)CC2)o1	-8.93
Cc1cc(CN2C[C@@H]3COC[C@]3(CNC(=O)c3ccsc3)C2)no1	-8.24
CN(C)CCO[C@H]1CN(CC2CC2)[C@@H]2CCCO[C@H]12	11.6
